The source of these data is patent US11759461B2, “Small molecule inhibitors of cancer stem cells and mesenchymal cancer types” (The Scripps Research Institute, priority 2017, dated 2023).

pIC50: −log10 of the molar value. Bounds are passed on as bounds.

For this experiment, the system named is FOXC2-expressing HMLER cells. Briefly: Cell Titer Glo viability of FOXC2-HMLER cells (high throughput screen and 10-point response). Type of experiment: cell-based. Particulars: Homo sapiens; scored relative to parent compound 2; 72 hours; read-out: Activity Score, inhibition of FOXC2-expressing HMLER cells by Formula II compounds. An outline of the steps: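 FOXC2-HMLER cells (HMLER run in parallel) seeded at 1,000 cells/well in MEGM, attached 1 h, then given compound in DMSO (2 μM in the screen). After 72 h, viability was read by Cell Titer Glo luminescence.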
(In general: Cellular ATP, detected with luciferase, serves as a proxy for viable cell number.)
Consider `COc1ccc2cc(CNc3ccccc3)c(=O)n(CC(=O)Nc3ccc(C)cc3)c2c1` [Compound 2ET], for which the pIC50 was under 4.70.

Take `COc1cccc(NC(=O)Cn2c(=O)c(CNc3ccc(OC)c(OC)c3)cc3ccc(C)cc32)c1` [Compound 2EU]: the pIC50 was under 4.70.

Take `COc1ccc(NCc2cc3ccc(OC)cc3n(CC(=O)Nc3cccc(Cl)c3)c2=O)cc1` [Compound 2EV]: the pIC50 was under 4.70.

Turning to `COc1ccc2cc(CNc3ccccc3)c(=O)n(CC(=O)Nc3cc(F)ccc3F)c2c1` [Compound 2EW], the pIC50 was under 4.70.

`COc1ccc2cc(CNc3ccccc3)c(=O)n(CC(=O)Nc3cccc(C(C)=O)c3)c2c1` [Compound 2EX]: the pIC50 is under 4.70.

Regarding `Cc1ccc(NCc2cc3cc4c(cc3n(CC(=O)Nc3ccc(C)cc3C)c2=O)OCCO4)cc1` [Compound 2EY], the pIC50 is under 4.70.

Turning to `COc1ccc2cc(CNc3ccccc3)c(=O)n(CC(=O)Nc3cccc(Cl)c3C)c2c1` [Compound 2EZ], the pIC50 was under 4.70.

As to `CCOc1ccc(NC(=O)Cn2c(=O)c(CNc3ccc(C)cc3)cc3ccc(OC)cc32)cc1` [Compound 2E], the pIC50 is 4.70 to 6.00.

Turning to `COc1ccc2cc(CNc3ccccc3)c(=O)n(CC(=O)Nc3cccc(SC)c3)c2c1` [Compound 2FA], the pIC50 was under 4.70.

`CCc1ccc(NC(=O)Cn2c(=O)c(CNc3ccc(C)cc3)cc3cc(OC)c(OC)cc32)cc1` [Compound 2FB]: the pIC50 was under 4.70.

For the compound `COc1ccc2cc(CNc3ccc(C)cc3)c(=O)n(CC(=O)Nc3cc(Cl)ccc3C)c2c1` [Compound 2FC], the pIC50 is under 4.70.

With `COc1ccc(NCc2cc3ccc(OC)cc3n(CC(=O)Nc3cc(Cl)ccc3C)c2=O)cc1` [Compound 2FD], the pIC50 was under 4.70.

Take `COc1cc2cc(CNc3ccccc3)c(=O)n(CC(=O)Nc3ccc(C)c(C)c3)c2cc1OC` [Compound 2FE]: the pIC50 was under 4.70.

In the case of `COc1cc2cc(CNc3ccc(C)cc3)c(=O)n(CC(=O)Nc3ccccc3C)c2cc1OC` [Compound 2FF], the pIC50 is under 4.70.

For `O=C(Cn1c(=O)c(CNc2ccccc2)cc2cc3c(cc21)OCCO3)Nc1ccc2c(c1)OCCO2` [Compound 2FG], the pIC50 is under 4.70.

For `COc1cc2cc(CNc3ccc(C)cc3)c(=O)n(CC(=O)Nc3ccc(Cl)cc3)c2cc1OC` [Compound 2FH], the pIC50 is under 4.70.

For the compound `COc1ccc2cc(CNc3ccc(C)cc3)c(=O)n(CC(=O)Nc3ccc(C)c(F)c3)c2c1` [Compound 2FI], the pIC50 is under 4.70.

For `CCc1ccccc1NC(=O)Cn1c(=O)c(CNc2ccc(C)cc2)cc2ccc(OC)cc21` [Compound 2FJ], the pIC50 is under 4.70.

As for `COc1ccc2cc(CNc3ccc(OC)c(OC)c3)c(=O)n(CC(=O)Nc3cccc(C)c3)c2c1` [Compound 2FK], the pIC50 was under 4.70.

For `CCc1cccc(NC(=O)Cn2c(=O)c(CNc3ccc(C)cc3)cc3ccc(OC)cc32)c1` [Compound 2FL], the pIC50 was under 4.70.

As to `COc1cccc(NC(=O)Cn2c(=O)c(CNc3ccccc3)cc3ccc(C)cc32)c1` [Compound 2FM], the pIC50 is under 4.70.

Regarding `COc1ccc2cc(CNc3ccc(C)cc3)c(=O)n(CC(N)=O)c2c1` [Compound 2FN], the pIC50 was under 4.70.

For the compound `CCc1ccc(NCc2cc3ccc(OC)cc3n(CC(=O)Nc3cccc(F)c3)c2=O)cc1` [Compound 2FO], the pIC50 is under 4.70.

`COc1cc2cc(CNc3ccccc3)c(=O)n(CC(=O)Nc3ccc(Cl)cc3)c2cc1OC` [Compound 2FP]: the pIC50 is under 4.70.

For `Cc1ccc(C)c(NC(=O)Cn2c(=O)c(CNc3ccccc3)cc3cc4c(cc32)OCCO4)c1` [Compound 2FQ], the pIC50 is under 4.70.

As to `CCc1ccc(NCc2cc3ccc(OC)cc3n(CC(=O)Nc3ccc4c(c3)OCCO4)c2=O)cc1` [Compound 2FR], the pIC50 was under 4.70.

Turning to `COc1cc2cc(CNc3ccccc3)c(=O)n(CC(=O)Nc3ccccc3Cl)c2cc1OC` [Compound 2FS], the pIC50 was under 4.70.

Regarding `CCc1ccc(NCc2cc3ccc(OC)cc3n(CC(=O)Nc3cccc(OC)c3)c2=O)cc1` [Compound 2FT], the pIC50 was under 4.70.

Regarding `COc1cc2cc(CNc3ccc(C)cc3)c(=O)n(CC(=O)Nc3ccccc3)c2cc1OC` [Compound 2FU], the pIC50 was under 4.70.

Consider `COc1ccc2cc(CNc3ccc(C)cc3)c(=O)n(CC(=O)Nc3ccccc3)c2c1` [Compound 2FV], for which the pIC50 is under 4.70.

For the compound `Cc1ccc(NCc2cc3cc4c(cc3n(CC(=O)Nc3ccc(C)cc3)c2=O)OCCO4)cc1` [Compound 2FW], the pIC50 is under 4.70.

For `COc1ccc(NCc2cc3ccc(OC)cc3n(CC(=O)Nc3ccc(C)c(C)c3)c2=O)cc1` [Compound 2FX], the pIC50 was under 4.70.

In the case of `COc1cc2cc(CNc3ccc(C)cc3)c(=O)n(CC(=O)Nc3ccc(C)cc3)c2cc1OC` [Compound 2FY], the pIC50 is under 4.70.

In the case of `COc1ccc(CNC(=O)Cn2c(=O)c(CNc3ccc(C)cc3)cc3ccc(OC)cc32)cc1` [Compound 2FZ], the pIC50 is under 4.70.

On to `COc1ccc(NCc2cc3ccc(C)cc3n(CC(=O)Nc3ccc(C)cc3C)c2=O)cc1OC` [Compound 2F], for which the pIC50 was 4.70 to 6.00.

Turning to `CCc1ccc(NCc2cc3cc4c(cc3n(CC(=O)Nc3cccc(OC)c3)c2=O)OCCO4)cc1` [Compound 2GA], the pIC50 is under 4.70.

Take `CCc1ccc(NCc2cc3ccc(OC)cc3n(CC(=O)Nc3ccc(Cl)cc3)c2=O)cc1` [Compound 2GB]: the pIC50 is under 4.70.

Take `COc1cccc(NC(=O)Cn2c(=O)c(CNc3ccc(C)cc3)cc3cc4c(cc32)OCCO4)c1` [Compound 2GC]: the pIC50 was under 4.70.

With `COc1ccc(NCc2cc3cc4c(cc3n(CC(=O)Nc3ccc(C)c(C)c3)c2=O)OCCO4)cc1` [Compound 2GD], the pIC50 is under 4.70.

For the compound `COc1ccc(NC(=O)Cn2c(=O)c(CNc3ccccc3)cc3ccc(C)cc32)cc1OC` [Compound 2GE], the pIC50 is under 4.70.

Consider `COc1ccc2cc(CNc3ccc(C)cc3)c(=O)n(CC(=O)Nc3cccc(C(C)=O)c3)c2c1` [Compound 2GF], for which the pIC50 is under 4.70.

`COc1cc2cc(CNc3ccccc3)c(=O)n(CC(=O)Nc3cc(C)cc(C)c3)c2cc1OC` [Compound 2GG]: the pIC50 was under 4.70.

For `COc1ccc2cc(CNc3ccc(C)cc3)c(=O)n(CC(=O)Nc3cccc(SC)c3)c2c1` [Compound 2GH], the pIC50 is under 4.70.

For `CCOc1ccc(NC(=O)Cn2c(=O)c(CNc3ccccc3)cc3cc(OC)c(OC)cc32)cc1` [Compound 2GI], the pIC50 was under 4.70.

`Cc1ccc(NC(=O)Cn2c(=O)c(CNc3ccccc3)cc3cc4c(cc32)OCCO4)cc1` [Compound 2GJ]: the pIC50 is under 4.70.

`COc1ccc(NCc2cc3ccc(OC)cc3n(CC(=O)Nc3ccccc3OC)c2=O)cc1` [Compound 2GK]: the pIC50 is under 4.70.

As to `CCc1ccc(NCc2cc3ccc(OC)cc3n(CC(=O)NCCc3ccccc3)c2=O)cc1` [Compound 2GL], the pIC50 is under 4.70.

With `CCOC(=O)c1ccc(NC(=O)Cn2c(=O)c(CNc3ccc(C)cc3)cc3ccc(OC)cc32)cc1` [Compound 2GM], the pIC50 is under 4.70.

Consider `Cc1ccccc1NC(=O)Cn1c(=O)c(CNc2ccccc2)cc2cc3c(cc21)OCCO3` [Compound 2GN], for which the pIC50 was under 4.70.

Consider `COc1ccc(NC(=O)Cn2c(=O)c(CNc3ccccc3)cc3cc4c(cc32)OCCO4)cc1` [Compound 2GO], for which the pIC50 is under 4.70.

On to `COc1ccc2cc(CNc3ccc(C)cc3)c(=O)n(CC(=O)NCc3ccc(C)cc3)c2c1` [Compound 2GP], for which the pIC50 is under 4.70.

For the compound `COc1ccc2cc(CNc3ccccc3)c(=O)n(CC(=O)NCc3ccc(C)cc3)c2c1` [Compound 2GQ], the pIC50 was under 4.70.

With `COc1ccc(NCc2cc3ccc(OC)cc3n(CC(=O)Nc3ccc(C)cc3Cl)c2=O)cc1` [Compound 2GR], the pIC50 is under 4.70.

`CCc1ccc(NCc2cc3ccc(OC)cc3n(CC(=O)Nc3cc(Cl)ccc3C)c2=O)cc1` [Compound 2GS]: the pIC50 was under 4.70.

Take `COc1ccc2cc(CNc3ccc(C)cc3)c(=O)n(CC(=O)NCc3ccccc3)c2c1` [Compound 2GT]: the pIC50 is under 4.70.

Turning to `Cc1cccc(C)c1NC(=O)Cn1c(=O)c(CNc2ccccc2)cc2cc3c(cc21)OCCO3` [Compound 2GU], the pIC50 is under 4.70.

Consider `COc1cc(NC(=O)Cn2c(=O)c(CNc3ccccc3)cc3ccc(OC)cc32)cc(OC)c1` [Compound 2GV], for which the pIC50 is under 4.70.

As for `CCOc1ccc(NC(=O)Cn2c(=O)c(CNc3ccccc3)cc3cc4c(cc32)OCCO4)cc1` [Compound 2GW], the pIC50 is under 4.70.

Turning to `COc1ccc2cc(CNc3ccc(C)cc3)c(=O)n(CC(=O)Nc3ccc(OC)c(Cl)c3)c2c1` [Compound 2GX], the pIC50 was under 4.70.

As for `COc1ccc(NCc2cc3ccc(C)cc3n(CC(=O)Nc3ccc(C)cc3)c2=O)cc1OC` [Compound 2GY], the pIC50 was under 4.70.

`COc1ccc2cc(CNc3ccc(C)cc3)c(=O)n(CC(=O)Nc3ccccc3C)c2c1` [Compound 2GZ]: the pIC50 is under 4.70.

As to `COc1ccc2cc(CNc3ccc(C)cc3)c(=O)n(CC(=O)Nc3ccc(F)c(F)c3)c2c1` [Compound 2G], the pIC50 was 4.70 to 6.00.

Turning to `CCc1ccc(NCc2cc3ccc(OC)cc3n(CC(=O)Nc3ccccc3)c2=O)cc1` [Compound 2HA], the pIC50 was under 4.70.

On to `COc1ccc2cc(CNc3ccccc3)c(=O)n(CC(N)=O)c2c1` [Compound 2HB], for which the pIC50 is under 4.70.

As for `CCc1ccc(NCc2cc3ccc(OC)cc3n(CC(=O)Nc3ccccc3Cl)c2=O)cc1` [Compound 2HC], the pIC50 was under 4.70.

On to `COc1ccc2cc(CNc3ccc(C)cc3)c(=O)n(CC(=O)Nc3ccccc3OC)c2c1` [Compound 2HD], for which the pIC50 was under 4.70.

Take `COc1ccc(NCc2cc3ccc(OC)cc3n(CC(=O)Nc3cc(C)ccc3C)c2=O)cc1` [Compound 2HE]: the pIC50 is under 4.70.

Consider `COc1ccc2cc(CNc3ccccc3)c(=O)n(CC(=O)Nc3ccc(OC)c(OC)c3)c2c1` [Compound 2HF], for which the pIC50 was under 4.70.

Turning to `CCc1ccc(NCc2cc3ccc(OC)cc3n(CC(=O)Nc3cccc(C)c3)c2=O)cc1` [Compound 2HG], the pIC50 is under 4.70.
